Source: ChEMBL document CHEMBL1681677 (Bioorg Med Chem Lett, 2011)
pKi: −log10 of the molar value.

Columns and labels:
Carbonic anhydrase 1 = Carbonic anhydrase 1 (Homo sapiens, UniProt P00915)
Carbonic anhydrase 2 = Carbonic anhydrase 2 (Homo sapiens, UniProt P00918)
[1] = molecular target: Carbonic anhydrase 5A, mitochondrial (Homo sapiens, UniProt P35218)
[2] = molecular target: Carbonic anhydrase 5B, mitochondrial (Homo sapiens, UniProt Q9Y2D0)
Chain of Carbonic anhydrase 5B, mitochondrial (Q9Y2D0 whole entry): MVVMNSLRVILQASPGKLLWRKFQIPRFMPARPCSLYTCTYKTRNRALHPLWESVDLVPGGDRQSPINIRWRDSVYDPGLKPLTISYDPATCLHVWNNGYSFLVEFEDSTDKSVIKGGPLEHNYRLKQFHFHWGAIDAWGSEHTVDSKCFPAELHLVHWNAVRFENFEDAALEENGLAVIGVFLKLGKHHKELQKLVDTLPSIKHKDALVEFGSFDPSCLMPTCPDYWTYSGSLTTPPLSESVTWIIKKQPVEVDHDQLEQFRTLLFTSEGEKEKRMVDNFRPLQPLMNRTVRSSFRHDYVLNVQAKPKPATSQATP

Chain of Carbonic anhydrase 5A, mitochondrial (P35218 whole entry): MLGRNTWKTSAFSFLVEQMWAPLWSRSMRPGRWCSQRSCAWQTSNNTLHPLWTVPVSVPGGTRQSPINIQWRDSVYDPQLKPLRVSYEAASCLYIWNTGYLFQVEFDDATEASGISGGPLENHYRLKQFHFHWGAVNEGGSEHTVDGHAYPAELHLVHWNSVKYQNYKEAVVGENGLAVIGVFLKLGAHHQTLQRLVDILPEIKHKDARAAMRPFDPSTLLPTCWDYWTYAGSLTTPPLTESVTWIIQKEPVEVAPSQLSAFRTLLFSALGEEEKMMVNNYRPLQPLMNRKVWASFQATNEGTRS
Chain of Carbonic anhydrase 1 (P00915 whole entry): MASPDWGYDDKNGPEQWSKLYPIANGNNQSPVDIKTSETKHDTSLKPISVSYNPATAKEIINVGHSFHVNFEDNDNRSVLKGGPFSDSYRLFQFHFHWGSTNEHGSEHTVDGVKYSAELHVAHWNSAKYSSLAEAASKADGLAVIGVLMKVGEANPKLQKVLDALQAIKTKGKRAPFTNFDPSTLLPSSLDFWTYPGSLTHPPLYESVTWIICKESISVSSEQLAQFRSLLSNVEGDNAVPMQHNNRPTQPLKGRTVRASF

CC1(C)C2CC[C@@]1(CS(=O)(=O)NCc1ccc(S(N)(=O)=O)cc1)C(=O)C2
pKi (Carbonic anhydrase 1): 5.98 | pKi (Carbonic anhydrase 2): 5.61 | pKi [1]: 7.56 | pKi [2]: 7.17

CC1(C)C2CC[C@]1(CS(=O)(=O)NCc1ccc(S(N)(=O)=O)cc1)C(=O)C2
pKi (Carbonic anhydrase 1): 6.04 | pKi (Carbonic anhydrase 2): 5.81 | pKi [1]: 7.78 | pKi [2]: 7.39
